Results taken from PubChem BioAssay AID504740 (National Center for Advancing Translational Sciences (NCATS), 2011).

Test system: mouse plasma stability, LC-MS/MS, 48 h
Test: Inhibitors of Bloom's syndrome helicase: Mouse Plasma Stability Profiling
Conditions: at 2 µM; stronger effect = higher value
Source text: Survival of cells and the faithful propagation of the genome depend on elaborate mechanisms of detecting and repairing DNA damage. Treatment of advanced cancer relies on radiation therapy or chemotherapy, which kill cancer cells by causing extensive DNA damage. It is often found, that cancer cells develop resistance to therapy through enhanced activity of DNA repair functions; this has led to an increased interest in developing drugs that interfere with DNA repair, which could sensitize cancer cells to conventional therapy. Bloom syndrome helicase (BLM), is important in resolving abnormal DNA structures formed during replication or homologous recombination. Shutting down the expression of BLM leads to chromosomal instability and higher radiation sensitivity in cultured cells. After the completion of a qHTS campaign, secondary assays, and rounds of medicinal chemistry, a compound was identified to be further characterized through in vitro ADME assays. The stability of the lead compound in mouse plasma is tested because this parameter has a significant impact on many ADME-concerned properties of drugs, such as uptake, distribution, transport, and bioavailability. […]
2uM of compound is incubated in mouse plasma; the reference compound is procaine. Compounds are incubated at 37 deg C for the pre-determined time periods and the when aliquots are removed. Samples are analyzed with LC-MS/MS.

percent remaining: 100%
SMILES: O=C(Nc1ccc(F)c(C(F)(F)F)c1)Nc1nnc(-c2ccncc2)s1
